Measurements published in patent US11021445B2, “Carboxylic acid derivative as AT2R receptor antagonist” (SHANDONG DANHONG PHARMACEUTICAL CO., LTD., priority 2017, dated 2021).
Where two headings read alike, the source gives them in different places.

Assays:
CYP1A2 = biological target: T1, CYP1A2 (Homo sapiens, UniProt P05177); experiment: Human liver microsome CYP inhibition experiment; assay type: in vitro ADME; conditions: pooled human liver microsomes; read-out: Cytochrome P450 isoenzyme IC50 CYP1A2
T1 construct: Mixed human liver microsomes (pooled HLM, n≥50) were purchased from Corning Inc; tissue Corning Inc. or other qualified suppliers; host or cells: pooled human liver microsomes (n≥50)
T1 sequence (P05177 1-516): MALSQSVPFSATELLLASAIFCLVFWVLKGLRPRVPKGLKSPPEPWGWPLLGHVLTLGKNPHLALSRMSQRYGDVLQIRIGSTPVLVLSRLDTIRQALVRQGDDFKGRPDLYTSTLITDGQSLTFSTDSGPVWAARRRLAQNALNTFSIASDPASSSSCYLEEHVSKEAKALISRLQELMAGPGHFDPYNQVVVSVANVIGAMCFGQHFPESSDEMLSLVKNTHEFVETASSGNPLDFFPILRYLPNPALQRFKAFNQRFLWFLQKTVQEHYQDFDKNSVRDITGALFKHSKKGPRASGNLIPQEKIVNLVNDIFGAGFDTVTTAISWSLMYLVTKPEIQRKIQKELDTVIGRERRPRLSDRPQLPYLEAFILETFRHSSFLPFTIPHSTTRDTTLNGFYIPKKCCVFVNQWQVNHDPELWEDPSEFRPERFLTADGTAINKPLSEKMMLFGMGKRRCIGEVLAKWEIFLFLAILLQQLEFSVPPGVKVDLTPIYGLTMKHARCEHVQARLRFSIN
Procedure: (§1) The research project used a specific probe substrate for each isoenzyme to evaluate the inhibitory effect of the test compound on human liver microsomal cytochrome P450 isoenzymes (CYPIA2. CYP2C9, CYP2C19, CYP2D6, and CYP3A4). Mixed human liver microsomes (pooled HLM, n≥50) were purchased from Corning Inc. (Steuben, N.Y., USA) or other qualified suppliers, and were stored in a refrigerator below −60° C. before use. The diluted series of to-be-tested compound working solutions were added to an incubation system containing cofactors of human liver microsomes, a probe substrate and a circulation system, and the methanol content was about 1% (v/v) of the final incubation system. A control containing no the to-be-tested compound and containing a solvent was used as a control for enzyme activity (100%). The concentration of the analyte in the sample was determined by liquid chromatography-tandem mass spectrometry (LC/MS/MS). The calculation was performed by using the average of the concentrations of the samples (a blank solvent, a positive control inhibitor, or the to-be-tested compound). Non-linear regression analysis was performed by using SigmaPlot (V.11) on the average percent activity of the compound to be tested to the concentration. The IC50 value was calculated by a three-parameter or four-parameter inflection logarithmic equation.

CYP2C19 = biological target: T2, CYP2C19 (Homo sapiens, UniProt P33261); experiment: Human liver microsome CYP inhibition experiment; assay type: in vitro ADME; conditions: pooled human liver microsomes; read-out: Cytochrome P450 isoenzyme IC50 2C19
T2 construct: Mixed human liver microsomes (pooled HLM, n≥50) were purchased from Corning Inc; tissue Corning Inc. or other qualified suppliers; host or cells: pooled human liver microsomes (n≥50)
Procedure: as §1

CYP2C9 = biological target: T3, CYP2C9 (Homo sapiens, UniProt P11712); experiment: Human liver microsome CYP inhibition experiment; assay type: in vitro ADME; conditions: pooled human liver microsomes; read-out: Cytochrome P450 isoenzyme IC50 2C9
T3 construct: Mixed human liver microsomes (pooled HLM, n≥50) were purchased from Corning Inc; tissue Corning Inc. or other qualified suppliers; host or cells: pooled human liver microsomes (n≥50)
Procedure: as §1

CYP2D6 = biological target: T4, CYP2D6 (Homo sapiens, UniProt P10635); experiment: Human liver microsome CYP inhibition experiment; assay type: in vitro ADME; conditions: pooled human liver microsomes; read-out: Cytochrome P450 isoenzyme IC50 2D6
T4 construct: Mixed human liver microsomes (pooled HLM, n≥50) were purchased from Corning Inc; tissue Corning Inc. or other qualified suppliers; host or cells: pooled human liver microsomes (n≥50)
Procedure: as §1

CYP3A4 = biological target: T5, CYP3A4 (Homo sapiens, UniProt P08684); experiment: Human liver microsome CYP inhibition experiment; assay type: in vitro ADME; conditions: pooled human liver microsomes; read-out: Cytochrome P450 isoenzyme IC50 3A4
T5 construct: Mixed human liver microsomes (pooled HLM, n≥50) were purchased from Corning Inc; tissue Corning Inc. or other qualified suppliers; host or cells: pooled human liver microsomes (n≥50)
Procedure: as §1

[1] = Plasma protein binding rate (PPB) test, equilibrium dialysis; assay type: in vitro ADME; conditions: human, 37°C
Procedure: (§2) In vitro protein binding rates of 0.2 μM, 2 μM, 10 μM of test compounds with Sprague-Dawley rats, beagle dogs, human plasma were determined by equilibrium dialysis.
(§3) The experiment will use a 96-well equilibrium dialysis plate (HTDialysis device) to determine the plasma protein binding rate of the to-be-tested compound and the control compounds.
(§4) Prior to the start of the experiment, the dialysis membrane was pretreated according to the instructions for use and the dialysis unit was assembled as required.
(§5) Blank plasma was taken from CD-1 mice, Sprague-Dawley rats, Beagle dogs, cynomolgus monkeys and humans (an anticoagulant is EDTA-K2, which is a commercial product purchased, or is collected and prepared by the Drug Evaluation Department of Wuxi AppTech, and is stored in a refrigerator below −60° C. before use). A certain volume of the to-be-tested compound or the control compound working solution was added to prepare plasma samples of the compound to be tested at a concentration of 0.2, 2, 10 μM and plasma samples of the control compound at a concentration of 2 μM (n=1). The organic phase content was ≤1%. First, a certain volume of a plasma sample containing the to-be-tested compound and the control compound was taken out into the sample receiving plate as a sample at zero time (T0 sample, n=3); secondly, a plasma sample containing the to-be-tested compound and the control compound was added to one side of the dialysis membrane (plasma end, n=3), and a certain volume of dialysis buffer (buffer end, n=3) was added to the other side of the dialysis membrane; then the dialysis plate was placed in a humidified incubator with 5% CO2 for incubation for 4 hours at 37±1° C.
(§6) After the incubation, a certain volume of the dialyzed buffer sample (F sample) and the dialyzed plasma sample (T sample) were transferred to the sample receiving plate, and all samples were subjected to protein precipitation for LC/MS/MS analysis. And the dissociation rate of the compound (% Unbound) was calculated by the following formula: % Unbound=100*[F]/[T], % Bound=100−% Unbound. Wherein, % Unbound is the dissociation rate of the compound; % Bound is the binding rate of the compound; [F] is the concentration of the compound at the buffer end of the dialysis plate; [T] is the concentration of the compound at the plasma end of the dialysis plate; and the experimental results are shown in Table 7.

[2] = as above; assay type: in vitro ADME, Sprague-Dawley rats; conditions: Sprague-Dawley, rat, 37°C, read-out: Plasma Protein Binding (%) SD Rat Plasma (converted)
Procedure: as §2, §3, §4, §5, §6

T4 sequence (P10635 whole entry): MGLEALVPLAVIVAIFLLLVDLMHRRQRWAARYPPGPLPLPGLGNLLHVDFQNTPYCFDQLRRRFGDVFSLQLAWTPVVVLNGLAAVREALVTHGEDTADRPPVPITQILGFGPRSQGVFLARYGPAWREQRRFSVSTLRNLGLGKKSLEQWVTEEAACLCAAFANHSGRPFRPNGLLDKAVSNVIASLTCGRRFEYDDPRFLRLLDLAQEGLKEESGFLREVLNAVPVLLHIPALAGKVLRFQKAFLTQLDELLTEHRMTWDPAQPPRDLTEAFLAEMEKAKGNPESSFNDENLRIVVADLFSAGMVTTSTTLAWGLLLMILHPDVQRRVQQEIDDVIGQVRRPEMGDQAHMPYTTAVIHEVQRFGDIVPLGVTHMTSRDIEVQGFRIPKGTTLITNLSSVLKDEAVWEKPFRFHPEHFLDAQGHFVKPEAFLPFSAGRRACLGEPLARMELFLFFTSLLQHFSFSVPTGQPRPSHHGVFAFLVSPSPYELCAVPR
T5 sequence (P08684 whole entry): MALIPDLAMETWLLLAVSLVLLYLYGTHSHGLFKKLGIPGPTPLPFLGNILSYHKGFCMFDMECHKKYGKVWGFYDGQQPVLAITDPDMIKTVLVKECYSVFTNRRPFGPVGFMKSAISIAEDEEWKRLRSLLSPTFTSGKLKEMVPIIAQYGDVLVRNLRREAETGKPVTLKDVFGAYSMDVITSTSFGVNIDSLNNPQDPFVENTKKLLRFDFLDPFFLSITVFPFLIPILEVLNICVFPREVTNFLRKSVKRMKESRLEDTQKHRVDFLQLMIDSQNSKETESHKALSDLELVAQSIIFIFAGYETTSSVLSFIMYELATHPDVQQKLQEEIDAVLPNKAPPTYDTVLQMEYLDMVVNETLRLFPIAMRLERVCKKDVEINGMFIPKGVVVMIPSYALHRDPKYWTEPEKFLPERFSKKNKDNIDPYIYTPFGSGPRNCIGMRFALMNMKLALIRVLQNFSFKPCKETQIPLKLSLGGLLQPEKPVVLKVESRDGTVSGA
T2 sequence (P33261 whole entry): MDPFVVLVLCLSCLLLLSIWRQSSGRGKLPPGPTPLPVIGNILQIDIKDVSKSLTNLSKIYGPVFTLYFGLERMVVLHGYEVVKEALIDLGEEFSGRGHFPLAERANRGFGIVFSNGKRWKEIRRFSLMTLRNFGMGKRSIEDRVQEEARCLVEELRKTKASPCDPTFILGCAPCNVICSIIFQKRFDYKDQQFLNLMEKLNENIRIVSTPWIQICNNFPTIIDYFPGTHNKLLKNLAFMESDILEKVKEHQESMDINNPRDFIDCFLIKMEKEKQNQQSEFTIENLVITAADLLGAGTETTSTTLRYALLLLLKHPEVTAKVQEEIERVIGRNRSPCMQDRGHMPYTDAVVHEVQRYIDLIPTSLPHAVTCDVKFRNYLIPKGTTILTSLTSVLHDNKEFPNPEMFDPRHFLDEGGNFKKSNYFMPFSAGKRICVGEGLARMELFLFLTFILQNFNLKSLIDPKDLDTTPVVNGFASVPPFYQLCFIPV
T3 sequence (P11712 whole entry): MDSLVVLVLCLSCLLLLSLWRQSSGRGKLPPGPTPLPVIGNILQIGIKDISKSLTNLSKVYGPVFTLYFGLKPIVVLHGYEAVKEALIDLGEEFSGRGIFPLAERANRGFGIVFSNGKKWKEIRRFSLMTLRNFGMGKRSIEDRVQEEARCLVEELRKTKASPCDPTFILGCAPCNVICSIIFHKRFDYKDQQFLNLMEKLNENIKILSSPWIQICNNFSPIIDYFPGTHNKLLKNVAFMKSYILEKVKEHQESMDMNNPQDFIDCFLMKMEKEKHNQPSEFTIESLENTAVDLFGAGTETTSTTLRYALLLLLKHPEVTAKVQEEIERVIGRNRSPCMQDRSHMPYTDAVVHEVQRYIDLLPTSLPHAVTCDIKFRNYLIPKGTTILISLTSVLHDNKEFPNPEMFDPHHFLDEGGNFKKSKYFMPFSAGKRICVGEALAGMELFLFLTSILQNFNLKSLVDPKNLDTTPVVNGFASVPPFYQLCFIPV

| IC50 (CYP1A2) | IC50 (CYP2C19) | IC50 (CYP2C9) | IC50 (CYP2D6) | IC50 (CYP3A4) | fraction unbound at 4 h [1] | fraction unbound at 4 h [2] | SMILES |
| --- | --- | --- | --- | --- | --- | --- | --- |
| 13 µM | 17.6 µM | 7.28 µM | > 50 µM | 9.19 µM | 0.002 | 0.001 | COc1ccc2c(c1OCc1ccccc1)C[C@@H](C(=O)O)N(C(=O)C(c1ccccc1)c1ccccc1)C2 [EMA-401, reference compound] |
| > 50 µM | > 50 µM | 14.5 µM | > 50 µM | > 50 µM | – | – | O=C(O)[C@@H]1Cc2c(ccc(Cl)c2OCc2ccccc2)CN1C(=O)[C@@H](OC1CCCC1)c1ccccc1 [Compound 107] |

The next lines start with the compound.

| SMILES | IC50 (CYP1A2) | IC50 (CYP2C19) | IC50 (CYP2C9) | IC50 (CYP2D6) | IC50 (CYP3A4) | fraction unbound at 4 h [1] | fraction unbound at 4 h [2] |
| --- | --- | --- | --- | --- | --- | --- | --- |
| COc1ccc2c(c1OCc1ccccc1)C[C@@H](C(=O)O)N(C(=O)[C@@H](OC1CCCC1)c1ccccc1)C2 [Compound 37] | > 50 µM | > 50 µM | 30.5 µM | > 50 µM | > 50 µM | 0.004 | 0.001 |
| COc1ccc2c(c1OCc1ccccc1)C[C@@H](C(=O)O)N(C(=O)[C@@H](OC1CC(F)(F)C1)c1ccccc1)C2 [Compound 51] | > 50 µM | > 50 µM | 34.4 µM | > 50 µM | > 50 µM | 0.007 | 0.055 |
| COc1ccc2c(c1OCc1ccccc1)C[C@@H](C(=O)O)N(C(=O)[C@@H](O[C@H]1CC[C@@H](O)CC1)c1ccccc1)C2 [Compound 63] | > 50 µM | > 50 µM | > 50 µM | > 50 µM | > 50 µM | 0.016 | 0.011 |
| COc1ccc2c(c1OCc1ccccc1)C[C@@H](C(=O)O)N(C(=O)[C@@H](OC1(C)CCCC1)c1ccccc1)C2 [Compound 57] | – | – | – | – | – | 0.005 | 0.002 |
